According to patent US20010053796A1, “Delta-aminolevulinic acid for prevention and treatment of infection microorganisms and parasite” (priority 2000, published 2001):

How the values were obtained:
Edwardsiella tarda [1] = experiment: Prevention effect for artificial infection (abdominal injection of bacteria); type: in vivo, Sebastes schlegeli; conditions: for Mortality during Cultivation: dead of 20 fish
Procedure: (§1) The water temperature was maintained at 20° C. (±2° C. ) throughout the experiment.
(§2) As the same method of above Experiment 1, fishes of both control group and experiment group were prepared and artificially infected by direct abdominal injection of Edwardsiella tarda 10^5 CFU per 1 fish. Each experimental fish was moved to fish tanks for monitoring and monitored for mortality according to infection for 2 weeks and viability after 2 weeks.

Streptococcus sp. [2] = experiment: as above; type: in vivo, Bastardhalibut; conditions: for Mortality during Cultivation: dead of 20 fish
Procedure: as §1, §2
Bastardhalibut and Sebastes schlegeli were infected by Streptococcus sp. by abdominal injection with the same method of fish breeding, δ-aminolevulinic acid treatment and artificial infection carried out in Experiment 1 and 2. Each experimental fish was moved to fish tanks for monitoring and monitored for mortality according to infection for 2 weeks. […] The treated group, with δ-aminolevulinic acid by tank administration method and oral administration method, has shown viability of higher than 65%.

Edwardsiella tarda [3] = experiment: Treatment effect of infected fry by digestion in breeding water; type: in vivo, Sebastes schlegeli; conditions: 50 fish
Procedure: (§3) To be used as experimental fish in this example, fry of Bastardhalibut and Sebastes schlegeli (mean body weight 2 g), 50 per each breeding tank, were preliminary-bred for 1 week and stabilized. […] The artificial infection methods were carried out by the digestion method. Pathogenic organisms were applied into fish tanks and digested in seawater, wherein the concentration of organisms has adjusted to 10^4 CFU/mL for an hour, and infected. Treatment conditions are as follows. After artificial infection. Infected fishes were moved to fish tanks and kept in the infection period for 3 days. On the fourth day of infection, 0.1, 1.0, 5 and 10 ppm δ-aminolevulinic acid were introduced to use as breeding water. Fish was bred in aerobic condition for 1˜24 hours without exchanging water and then, bred for 2 weeks after exchanging with clean seawater. Then, they were monitored to check for the mortality of fish according to infection. In the control groups, after each bacteria were identically introduced through the digestion method, mortality of Bastardhalibut and Sebastes schlegeli according to bacteria infection was identified while breeding with non-treated condition of δ-aminolevulinic acid. As a result of this experiment, δ-aminolevulinic acid-treated groups have shown high viability in both Bastardhalibut (Table 12˜Table 15) and Sebastes schlegeli (Table 16˜Table 19).

Pseudomonas sp. = experiment: as above; type: in vivo, Sebastes schlegeli; conditions: 50 fish
Procedure: as §3

Staphylococcus epidermis = experiment: as above; type: in vivo, Sebastes schlegeli; conditions: 50 fish
Procedure: as §3

Staphylococcus sp. = experiment: as above; type: in vivo, Sebastes schlegeli; conditions: 50 fish
Procedure: as §3

Streptococcus sp. [4] = experiment: as above; type: in vivo, Sebastes schlegeli; conditions: 50 fish
Procedure: as §3

Vibrio anguillarum = experiment: as above; type: in vivo, Sebastes schlegeli; conditions: 50 fish
Procedure: as §3

[5] = test system: White Spot Syndrome Virus (WSSV); experiment: Prevention for White Spot Syndrome Virus infected shrimp; type: in vivo, Penaeus Chinesis
Procedure: The Shrimps (Penaeus Chinesis, size 6˜8 cm) were immersed in 0.01˜10 ppm of EnviroVax for 1.5 hr during 3 days and injected viral homogenate at 4 day.
The Viral homogenate was prepared as follows:
Homogenize 1 g of tissue (gill and stomach) in 1 ml PBS.
Centrifuge at 2,000 rpm for 10 min. at 4° C.
Filter the supernatant by using the 0.45 μm membrane filter.
Dilute the filtrate (1 part of filtrate to 10 parts of PBS).

[6] = digestion 0.1 ppm from 4th day of infection, Sebastes schlegeli fry
[7] = digestion 1.0 ppm from 4th day of infection, Sebastes schlegeli fry
[8] = digestion 5.0 ppm from 4th day of infection, in Sebastes schlegeli
[9] = digestion 10 ppm from 4th day of infection, Sebastes schlegeli fry
[10] = digestion 10 ppm from 4th day of infection
[11] = digestion 5.0 ppm from 4th day of infection

NCC(=O)CCC(=O)O [δ-aminolevulinic acid] was tested, and the Viability (Edwardsiella tarda [1]; orally, 0.01 ppm in feed) was 70%, the “Mortality during Cultivation” value (Edwardsiella tarda [1]; orally, 0.01 ppm in feed) was 6 and the Viability (Edwardsiella tarda [1]; orally, 1.0 ppm in feed) was 80%. The “Mortality during Cultivation” value (Edwardsiella tarda [1]; orally, 1.0 ppm in feed) was 4, the Viability (Edwardsiella tarda [1]; orally, 10 ppm in feed) was 85% and the “Mortality during Cultivation” value (Edwardsiella tarda [1]; orally, 10 ppm in feed) was 3. For the same compound, the Viability (Edwardsiella tarda [1]; orally, 100 ppm in feed) was 90%, the “Mortality during Cultivation” value (Edwardsiella tarda [1]; orally, 100 ppm in feed) was 2 and the Viability (Edwardsiella tarda [1]; to fish tanks, 0.01 ppm) was 65%. For the same compound, the “Mortality during Cultivation” value (Edwardsiella tarda [1]; to fish tanks, 0.01 ppm) was 7, the Viability (Edwardsiella tarda [1]; to fish tanks, 0.1 ppm) was 75% and the “Mortality during Cultivation” value (Edwardsiella tarda [1]; to fish tanks, 0.1 ppm) was 5. The Viability (Edwardsiella tarda [1]; to fish tanks, 1.0 ppm) was 90%, the “Mortality during Cultivation” value (Edwardsiella tarda [1]; to fish tanks, 1.0 ppm) was 2 and the Viability (Edwardsiella tarda [1]; to fish tanks, 10 ppm) was 85%. For the same compound, the “Mortality during Cultivation” value (Edwardsiella tarda [1]; to fish tanks, 10 ppm) was 3, the Viability (Streptococcus sp. [2]; orally, 0.1 ppm in feed) was 65% and the “Mortality during Cultivation” value (Streptococcus sp. [2]; orally, 0.1 ppm in feed) was 7. The Viability (Streptococcus sp. [2]; orally, 1.0 ppm in feed) was 65%, the “Mortality during Cultivation” value (Streptococcus sp. [2]; orally, 1.0 ppm in feed) was 7 and the Viability (Streptococcus sp. [2]; orally, 10 ppm in feed) was 80%. For the same compound, the “Mortality during Cultivation” value (Streptococcus sp. [2]; orally, 10 ppm in feed) was 4, the Viability (Streptococcus sp. [2]; orally, 100 ppm in feed) was 85% and the “Mortality during Cultivation” value (Streptococcus sp. [2]; orally, 100 ppm in feed) was 3. For the same compound, the Viability (Streptococcus sp. [2]; to fish tanks, 0.01 ppm) was 60%, the “Mortality during Cultivation” value (Streptococcus sp. [2]; to fish tanks, 0.01 ppm) was 8 and the Viability (Streptococcus sp. [2]; to fish tanks, 0.1 ppm) was 65%. For the same compound, the “Mortality during Cultivation” value (Streptococcus sp. [2]; to fish tanks, 0.1 ppm) was 7, the Viability (Streptococcus sp. [2]; to fish tanks, 1.0 ppm) was 75% and the “Mortality during Cultivation” value (Streptococcus sp. [2]; to fish tanks, 1.0 ppm) was 5. For the same compound, the Viability (Streptococcus sp. [2]; to fish tanks, 10 ppm) was 85%, the “Mortality during Cultivation” value (Streptococcus sp. [2]; to fish tanks, 10 ppm) was 3 and the Viability (Edwardsiella tarda [3]; [6]) was 60%. The Viability (Edwardsiella tarda [3]; [7]) was 80%, the Viability (Edwardsiella tarda [3]; [8]) was 84% and the Viability (Edwardsiella tarda [3]; [9]) was 94%. It also gave a Viability (Pseudomonas sp.; [6]) of 40%, a Viability (Pseudomonas sp.; [7]) of 76% and a Viability (Pseudomonas sp.; [8]) of 86%. It also gave a Viability (Pseudomonas sp.; [10]) of 84%, a Viability (Staphylococcus epidermis; [6]) of 40% and a Viability (Staphylococcus epidermis; [7]) of 70%. It also gave a Viability (Staphylococcus epidermis; [8]) of 66%, a Viability (Staphylococcus epidermis; [10]) of 84% and a Viability (Staphylococcus sp.; [6]) of 50%. It also gave a Viability (Staphylococcus sp.; [7]) of 76%, a Viability (Staphylococcus sp.; [11]) of 84% and a Viability (Staphylococcus sp.; [9]) of 86%. It also gave a Viability (Streptococcus sp. [4]; [6]) of 50%, a Viability (Streptococcus sp. [4]; [7]) of 76% and a Viability (Streptococcus sp. [4]; [8]) of 86%. It also gave a Viability (Streptococcus sp. [4]; [9]) of 86%, a Viability (Vibrio anguillarum; [6]) of 50% and a Viability (Vibrio anguillarum; [7]) of 74%. It also gave a Viability (Vibrio anguillarum; [11]) of 84%, a Viability (Vibrio anguillarum; [9]) of 86% and a Cumulative mortality ([5]; 0.01 ppm, after injection for 3 weeks) of 100%. For the same compound, the “Mortality after injection for 3 weeks” value ([5]; 0.01 ppm, day 1, 50 shrimp) was 0, the “Mortality after injection for 3 weeks” value ([5]; 0.01 ppm, day 2, 50 shrimp) was 0 and the “Mortality after injection for 3 weeks” value ([5]; 0.01 ppm, day 3, 50 shrimp) was 15. The “Mortality after injection for 3 weeks” value ([5]; 0.01 ppm, day 4, 50 shrimp) was 20, the “Mortality after injection for 3 weeks” value ([5]; 0.01 ppm, day 5, 50 shrimp) was 12 and the “Mortality after injection for 3 weeks” value ([5]; 0.01 ppm, day 6, 50 shrimp) was 3. The Cumulative mortality ([5]; 0.1 ppm, after injection for 3 weeks) was 12%, the “Mortality after injection for 3 weeks” value ([5]; 0.1 ppm, day 1, 50 shrimp) was 0 and the “Mortality after injection for 3 weeks” value ([5]; 0.1 ppm, day 2, 50 shrimp) was 0. The “Mortality after injection for 3 weeks” value ([5]; 0.1 ppm, day 3, 50 shrimp) was 2, the “Mortality after injection for 3 weeks” value ([5]; 0.1 ppm, day 4, 50 shrimp) was 3 and the “Mortality after injection for 3 weeks” value ([5]; 0.1 ppm, day 5, 50 shrimp) was 1. For the same compound, the “Mortality after injection for 3 weeks” value ([5]; 0.1 ppm, day 6, 50 shrimp) was 0, the “Mortality after injection for 3 weeks” value ([5]; 0.1 ppm, day 7, 50 shrimp) was 0 and the “Mortality after injection for 3 weeks” value ([5]; 0.1 ppm, day 21, 50 shrimp) was 0. For the same compound, the Cumulative mortality ([5]; 1.0 ppm, after injection for 3 weeks) was 8%, the “Mortality after injection for 3 weeks” value ([5]; 1.0 ppm, day 1, 50 shrimp) was 0 and the “Mortality after injection for 3 weeks” value ([5]; 1.0 ppm, day 2, 50 shrimp) was 1. The “Mortality after injection for 3 weeks” value ([5]; 1.0 ppm, day 3, 50 shrimp) was 2, the “Mortality after injection for 3 weeks” value ([5]; 1.0 ppm, day 4, 50 shrimp) was 1 and the “Mortality after injection for 3 weeks” value ([5]; 1.0 ppm, day 5, 50 shrimp) was 0. For the same compound, the “Mortality after injection for 3 weeks” value ([5]; 1.0 ppm, day 6, 50 shrimp) was 0, the “Mortality after injection for 3 weeks” value ([5]; 1.0 ppm, day 7, 50 shrimp) was 0 and the “Mortality after injection for 3 weeks” value ([5]; 1.0 ppm, day 21, 50 shrimp) was 0. For the same compound, the Cumulative mortality ([5]; 10 ppm, after injection for 3 weeks) was 6%, the “Mortality after injection for 3 weeks” value ([5]; 10 ppm, day 1, 50 shrimp) was 0 and the “Mortality after injection for 3 weeks” value ([5]; 10 ppm, day 2, 50 shrimp) was 0. The “Mortality after injection for 3 weeks” value ([5]; 10 ppm, day 3, 50 shrimp) was 3, the “Mortality after injection for 3 weeks” value ([5]; 10 ppm, day 4, 50 shrimp) was 0 and the “Mortality after injection for 3 weeks” value ([5]; 10 ppm, day 5, 50 shrimp) was 0. For the same compound, the “Mortality after injection for 3 weeks” value ([5]; 10 ppm, day 6, 50 shrimp) was 0, the “Mortality after injection for 3 weeks” value ([5]; 10 ppm, day 7, 50 shrimp) was 0 and the “Mortality after injection for 3 weeks” value ([5]; 10 ppm, day 21, 50 shrimp) was 0. It also gave a Cumulative mortality ([5]; immersion 1.0 ppm, 1.5 hr during 3 days before virus injection, 3 weeks) of 8% and a Cumulative mortality ([5]; immersion 10 ppm, 1.5 hr during 3 days before virus injection, 3 weeks) of 6%.
